# Assay results taken from paper PMC4646072 (Chemistry (Weinheim an der Bergstrasse, Germany), 2015).
# Molecular target: AgtA (His6AgtA) (Dictyostelium discoideum, UniProt Q54RP0)
# Assay: radiometric galactosyl transfer from UDP-[3H]Gal
# Type: biochemical
# Details: 10 µM UDP-[3H]Gal, 60 min; acceptor substrate
# AgtA (His6AgtA), sequence (Q54RP0 whole entry): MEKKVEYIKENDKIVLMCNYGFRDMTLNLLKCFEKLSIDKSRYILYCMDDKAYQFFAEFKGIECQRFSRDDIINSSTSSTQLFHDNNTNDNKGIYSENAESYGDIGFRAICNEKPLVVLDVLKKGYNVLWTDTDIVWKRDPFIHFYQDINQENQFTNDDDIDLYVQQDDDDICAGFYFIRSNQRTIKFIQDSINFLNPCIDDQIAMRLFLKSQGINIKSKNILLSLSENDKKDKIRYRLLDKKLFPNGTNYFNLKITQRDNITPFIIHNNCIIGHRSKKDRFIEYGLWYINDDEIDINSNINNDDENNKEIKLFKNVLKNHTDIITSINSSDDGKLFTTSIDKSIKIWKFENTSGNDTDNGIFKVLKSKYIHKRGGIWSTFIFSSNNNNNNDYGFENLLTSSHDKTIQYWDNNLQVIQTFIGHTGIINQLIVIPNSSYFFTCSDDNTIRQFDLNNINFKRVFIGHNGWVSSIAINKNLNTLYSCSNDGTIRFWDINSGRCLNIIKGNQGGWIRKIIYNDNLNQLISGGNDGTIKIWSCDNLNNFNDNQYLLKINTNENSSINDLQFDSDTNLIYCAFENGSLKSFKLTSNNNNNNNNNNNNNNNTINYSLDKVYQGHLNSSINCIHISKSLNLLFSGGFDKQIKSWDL
smiles,measurement,value
C[C@@H]1O[C@@H](Oc2ccc([N+](=O)[O-])cc2)[C@@H](O)[C@H](O)[C@@H]1O [F-pNP],radiometric galactosyl transfer from UDP-[3H]Gal,Comparison of AgtA activity towards F-pNP and FGGn-pNP
